# According to publication PMC6117704, “Novel Natural Angiotensin Converting Enzyme (ACE)-Inhibitory Peptides Derived from Sea Cucumber-Modified Hydrolysates by Adding Exogenous Proline and a Study of Their Structure–Activity Relationship” (Marine Drugs, 2018):
# Like-named read-outs stand apart in the source and are kept apart here. Peptide text beside a SMILES is read from it.
# Legend:
# [1] = target: T1, rabbit-lung ACE (Oryctolagus cuniculus, UniProt P12822); test: ACE-inhibitory activity of synthetic peptides; type: biochemical; conditions: synthesized peptides; HHL substrate (8.3 mM Hip-His-Leu in 50 mM sodium borate, 0.5 M NaCl, pH 8.3), ACE 25 mU/mL, pre-incubation 37 °C 10 min, 60 min, UV 228 nm; mean ± SD (n = 3)
# T1 construct: rabbit-lung ACE and Sephadex G-15 were purchased from Sigma Chemical Ltd; purchased Sigma Chemical Ltd (St. Louis, MO, USA); host or cells: rabbit lung tissue
# T1 sequence (P12822 34-1310): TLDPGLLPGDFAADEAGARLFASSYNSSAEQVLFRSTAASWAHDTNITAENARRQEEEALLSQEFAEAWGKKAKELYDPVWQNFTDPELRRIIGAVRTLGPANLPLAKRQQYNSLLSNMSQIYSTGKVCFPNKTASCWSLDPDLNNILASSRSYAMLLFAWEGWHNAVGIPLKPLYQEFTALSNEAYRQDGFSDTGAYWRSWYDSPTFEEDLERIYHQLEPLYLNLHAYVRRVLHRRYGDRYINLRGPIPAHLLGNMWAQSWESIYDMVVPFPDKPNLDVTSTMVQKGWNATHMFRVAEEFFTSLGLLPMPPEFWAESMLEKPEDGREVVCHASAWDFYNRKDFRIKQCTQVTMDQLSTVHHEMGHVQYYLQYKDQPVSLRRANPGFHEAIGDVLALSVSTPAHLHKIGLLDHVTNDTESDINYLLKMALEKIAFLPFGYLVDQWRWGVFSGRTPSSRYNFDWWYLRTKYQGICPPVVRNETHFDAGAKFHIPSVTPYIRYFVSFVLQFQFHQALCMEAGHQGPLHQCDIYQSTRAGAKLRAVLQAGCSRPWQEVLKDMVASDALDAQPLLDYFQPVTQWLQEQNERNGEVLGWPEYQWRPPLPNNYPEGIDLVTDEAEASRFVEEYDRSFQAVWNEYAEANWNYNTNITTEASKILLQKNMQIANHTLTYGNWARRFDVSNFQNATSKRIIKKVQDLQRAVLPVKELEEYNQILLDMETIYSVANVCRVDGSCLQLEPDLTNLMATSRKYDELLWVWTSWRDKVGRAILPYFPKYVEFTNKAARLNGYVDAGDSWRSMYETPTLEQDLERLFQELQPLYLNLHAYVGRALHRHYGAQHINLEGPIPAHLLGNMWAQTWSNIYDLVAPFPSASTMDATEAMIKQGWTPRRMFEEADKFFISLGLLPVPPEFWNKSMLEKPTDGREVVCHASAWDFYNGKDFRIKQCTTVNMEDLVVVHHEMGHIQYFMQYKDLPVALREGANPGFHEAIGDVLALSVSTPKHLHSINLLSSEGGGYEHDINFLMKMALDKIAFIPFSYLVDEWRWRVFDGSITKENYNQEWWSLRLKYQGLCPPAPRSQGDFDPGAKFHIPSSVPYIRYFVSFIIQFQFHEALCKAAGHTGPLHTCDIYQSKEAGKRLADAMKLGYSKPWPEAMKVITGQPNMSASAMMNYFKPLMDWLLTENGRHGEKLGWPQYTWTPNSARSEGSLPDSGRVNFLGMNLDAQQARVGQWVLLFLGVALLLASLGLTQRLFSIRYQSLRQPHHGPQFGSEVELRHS
# Description: Sea cucumber (Acaudina molpadioidea) was purchased from a local market (Qingdao, China) and its water content was determined to be 12.65% per 20 g on average. Hippuryl histidyl leucine (HHL), rabbit-lung ACE and Sephadex G-15 were purchased from Sigma Chemical Ltd (St. Louis, MO, USA). Papain (from papaya) and trypsin (from bovine sources) were purchased from Nanning Pangbo Biological Engineering Ltd (Nanning, China). O-Pthaldialdehyde (OPA) was purchased from Beijing Soularbio Technology Ltd. (Beijing, China). Proline (PubChem CID 145742), valine (PubChem CID 6287), tyrosine (PubChem CID 6057), tryptophan (PubChem CID 6305), leucine (PubChem CID 6106) and phenylalanine (PubChem CID 6140) were purchased from Sinopharm Chemical Reagent Ltd. (Shanghai, China). All other chemicals were obtained from local commercial sources and were of the highest purity available.
# The ACE-inhibitory activity of the hydrolysates was measured according to a previously reported protocol with slight modifications. Briefly, a sample solution with 40 μL of ACE solution (25 mU/mL) was pre-incubated at 37 °C for 10 min. After this, the mixture was incubated with 50 μL of the substrate (8.3 mM Hip-His-Leu in 50 mM sodium borate buffer containing 0.5 M NaCl at pH of 8.3) for 60 min at the same temperature. The reaction was terminated by the addition of 1.0 M HCl (200 μL). The absorbance of hippuric acid in the incubated solution was determined at 228 nm using a UV-spectrophotometer (UV-2550, Shimadzu, Kyoto, Japan). The IC50 value was defined as the concentration of inhibitor that was needed to inhibit 50% of the ACE activity.
# The molecular weights of peptides in the filtered hydrolysates were analyzed by MALDI-TOF (TOF 4800, Micromass Company, Manchester, UK). The amino acid sequences were determined in the positive ion mode by de novo sequencing. Subsequently, the peptides were synthesized using the solid phase method and purified by HPLC (ChinaPeptides Co. Ltd., Shanghai, China).
# [2] = test system: ACE; design: method as in 8 sources, ref [4]; PMID 29426427; doi:10.1016/j.foodchem.2018.01.047; 4. Sangsawad P. Roytrakul S. Choowongkomon K. Kitts D.D. Chen X.M. Meng G. Lichan E. Yongsawatdigul J. Transepithelial transport across Caco-2 cell monolayers of angiotensin converting enzyme (ACE) in ||| ref [20] = [20]; PMID 29426427; doi:10.1016/j.jff.2016.12.005; 20. Sangsawad P. Roytrakul S. Yongsawatdigul J. Angiotensin converting enzyme (ACE) inhibitory peptides derived from the simulated in vitro gastrointestinal digestion of cooked chicken breast J. Funct ||| ref [21] = [21]; doi:10.1016/j.idairyj.2006.05.011; 21. Otte J. Shalaby S.M. Zakora M. Pripp A.H. El-Shabrawy S.A. Angiotensin-converting enzyme inhibitory activity of milk protein hydrolysates: Effect of substrate, enzyme and time of hydrolysis Int. D ||| ref [11] = [11]; doi:10.1080/10942912.2011.642048; 11. Sun H. Li T.J. Zhao X.H. ACE inhibition and enzymatic resistance in vitro of a casein hydrolysate subjected to plastein reaction in the presence of extrinsic proline and ethanol- or methanol-eater ||| ref [26] = [26]; PMID 24054237; doi:10.1016/j.foodchem.2013.07.067; 26. Ngo D.H. Ryu B. Kim S.K. Active peptides from skate ( Okamejei kenojei ) skin gelatin diminish angiotensin-I converting enzyme activity and intracellular free radical-mediated oxidation Food Chem. ||| ...; conditions: cited from earlier work
compound,measurement,setting,value
CC(C)[C@H](NC(=O)[C@H](CC(N)=O)NC(=O)[C@@H]1CCCN1)C(=O)N[C@@H](C)C(=O)O [PNVA] (H-PNVA-OH),IC50,[1],8.18 ± 0.24 µM
AGPPGSDGQPGAK,IC50,[2]; ref [38],420 ± 20 µM
MVGSAPGVL,ACE-inhibitory activity (in words),[2]; ref [26],high ACE-inhibitory activity
CC(C)C[C@H](NC(=O)[C@H](CC(N)=O)NC(=O)[C@@H]1CCCN1)C(=O)NCC(=O)O [PNLG] (H-PNLG-OH),IC50,[1],13.2 ± 0.39 µM
CC(C)C[C@H](NC(=O)[C@@H](N)CC(N)=O)C(=O)NCC(=O)O [NLG] (H-Asn-Leu-Gly-OH),IC50,[1],17.4 ± 0.89 µM
LGPLGHQ,ACE-inhibitory activity (in words),[2]; ref [26],high ACE-inhibitory activity
VYPFPGPIPNSLPQNIPP,ACE-inhibitory activity (in words),[2]; ref [21],high ACE-inhibitory activity
CC(C)[C@H](NC(=O)[C@@H](N)CC(N)=O)C(=O)N[C@@H](C)C(=O)O [NVA] (H-Asn-Val-Ala-OH),IC50,[1],12.7 ± 1.5 µM
KPLL,ACE-inhibitory activity (in words),[2]; ref [20],high ACE-inhibitory activity
